As usually defined, the Papp A→B is how fast a substance crosses the layer from the apical side. A high value points to fast passage. What is called Papp B→A is how fast a substance crosses the layer from the basolateral side. As usually defined, the inhibition is the share of the control response that was lost under treatment. A word on the IC50: it is the concentration at which inhibition is half-maximal. A word on the solubility: it is how much of the substance goes into solution per volume.

This is an account of results in patent US20130059879A1, “Small Molecule Inhibitors of PFKFB3 and Glycolytic Flux and Their Methods of Use as Anti-Cancer Therapeutics” (UNIVERSITY OF LOUISVILLE RESEARCH FOUNDATION, INC., priority 2010, published 2013).

≈ marks a conversion by molar mass, not a printed value. Like-named read-outs stand apart in the source and are kept apart here.

Data set [1] in a line: Cell permeability in Caco2 monolayers. To be noted: human, Caco-2, Caco2 cells, pH 7.4. It is filed as in vitro ADME. The source says:
The determination of the permeability in Caco2 or MDR1-MDCK cells is widely used when screening compounds to assess cell permeability, intestinal drug transport and predict absorption rates and to ascertain if a compound might be a Pgp substrate and have cross the blood brain barrier. […] Comparison of the apical to basal (A-B) and basal to apical (B-A) values show if a compound is actively effluxed out the cells and if it is a Pgp substrate. […] Briefly, cell permeability and transport mechanisms in Caco-2 and MDR1-MDCK monolayers experiments were performed in triplicate in the apical-to-basolateral and basolateral-to-apical direction using Transwell wells containing either Caco-2 or MDR1-MDCK monolayers. A modified Hanks buffer pH 7.4 was used in both reservoir and receiver wells with the addition of 1% BSA in the receiver side. Confluent monolayers were used and their integrity was verified using reference compounds (Atenolol as a low permeability reference compound and Propanolol as a high permeability reference compound). A sample in the basolateral and apical sides was taken after 2 hours and the concentration measured by LC/MS-MS.
On the technique in general: Passage across Caco-2 layers is used to estimate intestinal permeability.

The next data set concerns Jurkat cells. In words: Inhibition of 14C-2-deoxyglucose uptake. In kind it is cell-based. To be noted: Homo sapiens, 3 hours. On the procedure: Inhibition of PFKFB3 results in inhibiting glycolysis. Several feedback or feedforward activation and inhibition mechanisms exist so that, by a feedback mechanism, inhibiting the activity of PFKFB3 may inhibit glucose uptake by cells. An assay was developed to determine if there was inhibition of glucose uptake following exposure to the compounds on the invention. Briefly, Jurkat cells were plated at 1×10^5/mL in RPM′ 1640 supplemented with 10% fetal bovine serum and 50 μg/mL gentamicin sulfate. Cells were immediately treated with vehicle or 5 μmol/L of the compound of the invention for 3 hours and subsequently placed in glucose-free RPMI 1640 for 30 min. ^14C-2-deoxyglucose (0.25 μCi/mL; Perkin Elmer) was added for an additional 60 min and cells were then washed three with ice-cold RPMI 1640 containing no glucose. Cell lysates were collected in 500 μL of 0.1% SDS, and scintillation counts (counts/min) were measured on 400 μL of lysate. Counts were normalized to protein concentration.

The nature of data set [2]: Microsomal stability in human liver microsomes. In kind it is in vitro ADME.
The test system of the next data set is NCI-H82. The experiment in a line: Cancer cell proliferation, Alamar Blue assay, 72 hours. It is filed as cell-based. The conditions noted are these: Homo sapiens, NCI-H82, read-out: IC50 NCl-H82. The procedure, abridged:
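This cell-based assay measured whether compounds kill or inhibit growth of NCI-H82 tumor cells, using Alamar Blue as the readout. Plating was at 2×10^5 cells/ml in 96 well plates. Compounds, prepared at double the final concentration, were added next day in the same volume of medium. Exposure lasted 72 hours, and each experiment was run in triplicate.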
In general terms: Resazurin is reduced to fluorescent resorufin, in cell work by metabolically active cells.

In the next data set the test system is HCT-116. Described as above. In kind it is cell-based. The conditions noted are these: Homo sapiens, HCT-116.
Another data set concerns U937. Described as above. In kind it is cell-based. To be noted: Homo sapiens, U-937.
A further data set relates to Jurkat. The data set is described as above. In kind it is cell-based. To be noted: Homo sapiens, Jurkat. The procedure, abridged: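 This Alamar Blue assay measured the ability of compounds to kill or inhibit proliferation of Jurkat cancer cells. Cells seeded in 96 well plates at 2×10^5 cells/ml received compounds the following day, added at twice the indicated concentration in an equal volume of media. Exposure lasted 72 hours, and IC50 values were derived from triplicate experiments.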

The next data set concerns Calu-6. The description is as above. The conditions noted are these: Homo sapiens, Calu-6. In kind it is cell-based. A digest of the protocol: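 Calu-6 human cancer cells were seeded at 2×10^5 cells/ml in 96 well plates. The next day, an equal volume of media containing the compounds at twice the intended concentration was added. After 72 hours of exposure, inhibition of proliferation was measured with the Alamar Blue assay, run in triplicate, and IC50 values were determined.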

A further data set deals with MDA-MB-231. Described as above. In kind it is cell-based. To be noted: Homo sapiens.
The nature of data set [3]: Solubility in solvents and excipients, 1 hour at room temperature, HPLC. In kind it is physicochemical. To be noted: thermodynamic from solid. On the procedure: Chemical properties of the compounds of the invention were investigated, including the solubility in several solvents and pharmaceutically accepted excipients. […] Briefly, selected compounds of the invention are dissolved in a small volume of the solvents/excipients of interest at room temperature over 1 hour in typically 1 ml and the concentration is measured by HPLC after filtration.

Another data set has as its target T1, PFKFB3 (Homo sapiens, UniProt Q16875).
T1 construct: GST
In words: Inhibition of recombinant PFKFB3 kinase activity (ADP Glow assay). In kind it is biochemical. The conditions noted are these: 250 nM analog concentration; read-out: % Inhibition of PFKFB3 Enzymatic Activity. On the procedure:
PFKFB3 was prepared by expression in E. coli and purified by GST column and column chromatography. […] The recombinant protein was pure and active as determined by the results of a kinase activity assay commercially available (such as ADP Glow® assay, […]). The same assay was used to determine the inhibition of the protein and the results are shown in Table 5 below (IC50 values or percent inhibition at a fixed concentration). Results confirmed that the compounds of the invention have low nanomolar IC50 values, interacting with PFKFB3 and inhibiting its enzymatic activity.
In general terms: ADP-Glo turns the ADP formed in a reaction into a luminescent signal.

The mark [4] stands for this setting: 60 min incubation, 1.0 mg/ml microsomal protein, 1 mM NADPH, 37° C.
Where [5] appears, read: aqueous with cosolvent or surfactant or cyclodextrin, Cre:EtOH:Saline 5:5:90 mixture, 1 hour at room temperature, read-out: Solubility Cre:EtOH:Saline.
Setting [6] is: ethanol, organic solvent or mixture, EtOH, 1 hour at room temperature, read-out: Solubility EtOH.
Where [7] appears, read: organic solvent or mixture, 1:1 cremophor EL-P:ethanol mixture, 1 hour at room temperature, read-out: Solubility Cre:EtOH.
Setting [8] is: organic solvent or mixture, Acetone, 1 hour at room temperature, read-out: Solubility Acetone.
Where [9] appears, read: organic solvent or mixture, Cremophor, 1 hour at room temperature, read-out: Solubility Cremophor.
Setting [10] is: organic solvent or mixture, DCM, 1 hour at room temperature, read-out: Solubility DCM.
[11] abbreviates: organic solvent or mixture, Tween 80, 1 hour at room temperature, read-out: Solubility Tween 80.
The mark [12] stands for this setting: organic solvent or mixture, Tween80:EtOH 6:4 mixture, 1 hour at room temperature, read-out: Solubility Twee80:EtOH.

T1 sequence (Q16875 whole entry, species assumed): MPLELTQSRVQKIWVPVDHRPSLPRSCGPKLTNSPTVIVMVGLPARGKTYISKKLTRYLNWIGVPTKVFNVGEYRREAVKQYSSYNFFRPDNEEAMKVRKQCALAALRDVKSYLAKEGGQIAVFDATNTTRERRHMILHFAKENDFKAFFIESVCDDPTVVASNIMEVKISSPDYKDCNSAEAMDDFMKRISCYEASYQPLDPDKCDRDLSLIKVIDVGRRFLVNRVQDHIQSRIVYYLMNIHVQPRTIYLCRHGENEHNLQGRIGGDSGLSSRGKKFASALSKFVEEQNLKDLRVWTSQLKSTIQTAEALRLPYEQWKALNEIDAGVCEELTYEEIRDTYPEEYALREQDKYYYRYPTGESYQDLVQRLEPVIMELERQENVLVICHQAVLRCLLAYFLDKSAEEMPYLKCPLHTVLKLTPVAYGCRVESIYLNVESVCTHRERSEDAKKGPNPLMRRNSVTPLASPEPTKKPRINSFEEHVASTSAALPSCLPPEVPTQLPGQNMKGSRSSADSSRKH

`O=C(c1ccncc1)c1cc2c(ccc3ccccc32)[nH]1` [ACT-PFK-095, (3H-Benzo[e]indol-2-yl)-pyridin-4-yl-methanone] had a Papp A→B at 2 h in [1] (apical to basal) of 16.2 ×10⁻⁶ cm/s. The same compound showed a Papp B→A at 2 h in data set [1] (basal to apical) of 8.9 ×10⁻⁶ cm/s. The compound also came in with an inhibition at 5 µM with Jurkat cells of 48%. The “HLM, Mean metabolized (%)” value in data set [2] (0 min) amounted to 0.0%; in [2] (setting [4]), 26%. Besides, the 50% inhibitory concentration (IC50) in the data set with NCI-H82 came out at 498 nM; in the data set on HCT-116, 2400 nM; with U937 it was 50 nM; in the data set with Jurkat it was 1500 nM; in the data set with Calu-6 it was 208 nM; in the data set on MDA-MB-231, 395 nM. The solubility at 1 h was 300 µg/mL (≈ 1.1 mM) in data set [3] (setting [5]); 1600 µg/mL (≈ 5.88 mM) in data set [3] (setting [6]); 10000 µg/mL (≈ 36.7 mM) in [3] (setting [7]); 5000 µg/mL (≈ 18.4 mM) in [3] (setting [8]); 6900 µg/mL (≈ 25.3 mM) in data set [3] (setting [9]); 3400 µg/mL (≈ 12.5 mM) in [3] (setting [10]). In addition, the figures for the solubility at 1 h in data set [3] (setting [11]) and in data set [3] (setting [12]) were 7400 µg/mL (≈ 27.2 mM) and 9700 µg/mL (≈ 35.6 mM), respectively. Besides, on PFKFB3, the inhibition at 0.25 µM worked out at 26.2%.

In the case of `Nc1ccc(C(=O)c2cc3c(ccc4ccccc43)[nH]2)cc1` [ACT-PFK-112, (4-Amino-phenyl)-(3H-benzo[e]indol-2-yl)-methanone], the inhibition at 5 µM with Jurkat cells is 47%. Also, the “HLM, Mean metabolized (%)” value amounted to 0.0% in [2] (0 min) and 82.7% in data set [2] (setting [4]). In addition, the IC50 was 685 nM with NCI-H82; 1440 nM in the data set on HCT-116; 130 nM in the data set on U937; 625 nM in the data set on Jurkat; 260 nM in the data set on Calu-6; 205 nM in the data set with MDA-MB-231. Further, the solubility at 1 h in data set [3] (setting [5]) came to 3700 µg/mL (≈ 12.9 mM); in [3] (setting [6]), 7400 µg/mL (≈ 25.8 mM); in data set [3] (setting [7]), 37600 µg/mL (≈ 131 mM); in data set [3] (setting [8]), 8200 µg/mL (≈ 28.6 mM); in [3] (setting [9]), 18600 µg/mL (≈ 65 mM); in data set [3] (setting [10]) it was 14000 µg/mL (≈ 48.9 mM). For the same compound, the solubility at 1 h was determined as 18100 µg/mL (≈ 63.2 mM) in data set [3] (setting [11]) and 35600 µg/mL (≈ 124 mM) in [3] (setting [12]). Also, the inhibition at 0.25 µM at PFKFB3 amounted to 81.5%.
